Where “and” joins values, the source holds several entries; their conditions need not be identical. Equal entries are not always repeated.
Key:
[1] = system: ovine erythrocytes; assay: Haemolytic assay; format: cell-based, sheep; conditions: ovine erythrocytes in Tris buffered saline, 30 minutes, absorbance of supernatant at 540 nm
Outline: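 Washed sheep erythrocytes in Tris-buffered saline exposed to compound (50 μg/mL–1 mg/mL; final 4.08 x 10^8 cells/mL) for 30 min. After centrifugation, supernatant absorbance at 540 nm gave % haemolysis; 0.5% ammonium chloride as positive control.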

[2] = system: Gram negative bacteria; assay: MIC with 4% BSA, summary over Gram negative strains; format: cell-based; conditions: 4% BSA added
Description: Antimicrobial activity of the purified lipopeptoids was determined without replication against a panel of clinically relevant and standard reference bacterial strains according to CLSI macrobroth standards. Stock solutions at 512 µg/mL were prepared in water, with DMSO as needed, and testing was performed in glass test tubes using Muller-Hinton broth and bacteria adjusted to 5 × 10^5 CFU/mL. Bacteria were incubated with the lipopeptoid of interest for 24 hr at 37°C prior to reading. […]
After subculturing the relevant bacteria twice from frozen stock, in vitro activities of the antimicrobials were determined by macrobroth dilution methodology in accordance with the Clinical and Laboratory Standards Institute (CLSI) guidelines (3). The MICs were determined using glass test tubes (2 mL/tube) containing doubling antimicrobial dilutions of cation adjusted Mueller-Hinton broth inoculated to achieve a final concentration of approximately 5 x 10^5 CFU/mL, incubated in ambient air for 24 hr prior to reading. […]

Row | SMILES | Percent haemolysis at 100µg/mL of compound [1] | MIC against Gram negative bacteria with 4% BSA [2]
1 | CCCCCCCCCCCCCCCC[N+](C)(C)C.[Cl-] [CTAC, Cetyltrimethylammonium chloride, reference compound] | 77% and 77.05% | ≥ 512 µg/mL
2 | NCCCCN(CC(N)=O)C(=O)CNC(=O)CN(CCCCN)C(=O)CCC(F)(F)C(F)(F)C(F)(F)C(F)(F)C(F)(F)C(F)(F)C(F)(F)C(F)(F)F [F11-NlysGNlys] | 4.84% | 
3 | NCCCCN(CC(N)=O)C(=O)CN(CCCCN)C(=O)CN(CCCCN)C(=O)CCC(F)(F)C(F)(F)C(F)(F)C(F)(F)C(F)(F)C(F)(F)C(F)(F)C(F)(F)F [F11-NlysNlysNlys] | 8.13% | 
